# In patent publication US9332761B2, “Synergistic combination of a chlorotoluron compound and zinc pyrithione for dry film protection” (Rohm and Haas Company, priority 2013, dated 2016):
# Test system: Chlorella sp. ATCC 7516
# Assay: Algal efficacy testing of dry paint films (modified ASTM 5589, 6-well plates)
# Format: cell-based
# Details: 3 weeks; for Total conc, ppm (minimum total biocide concentration in paint reaching pass level): pass level >=75% algal growth inhibition, acrylic/silicone paint film on filter paper
# Description: These paints were then diluted with an antimicrobial free acrylic/silicone based paint and mixed to prepare targeted concentrations of antimicrobial compounds for the testing. The total biocides concentrations tested were 125, 250, 500, 1000, 2000 and 5000 ppm. After biocides addition or dilution, the paints were mixed 90 seconds with the horse power shaker (AXEL 75M3372/Agitateur SO-10MI) until uniformity was achieved. Paints containing different antimicrobial compounds at the same levels were mixed together in order to obtain the desired ratio of antimicrobial compounds. After one day, the paints were applied to Schleicher & Schuell filter paper at 280 μm wft and dried for 3 days at room temperature avoiding direct exposure to sunlight. Square discs (1.6 cm×1.6 cm) were cut out from each panel and were used as the substrate for algal efficacy tests. This sample size allowed for an agar border when the sample disc was placed into the well of the test plate.
# Algal efficacy was tested according to modified ASTM 5589 which is a standard accelerated test method for determining resistance of various coatings (including paints) to algal defacement. To accommodate for high-throughput screening, this method was scaled down from petri dishes to 6-well plates. Bold Modified Basal Freshwater Nutrient Solution was used as growth medium. A single coated filter paper coupon was placed with a pair of sterile forceps at the center of the agar plug (on top) with the painted surface facing upwards.
# Each well that contains a tested coupon was inoculated with 1750 μl of algal suspensions (1×10^6 cfu/ml) making sure that the whole surface (paint film as well as the agar surrounding it) was evenly covered. The plates were incubated at room temp (21° C.-25° C.) with cyclic exposure to light and dark phases, for a period of three weeks.
# At the end of the three week incubation period, the samples were scored for percent inhibition regarding color intensity compared to the blank sample.
# The Synergy Index calculation was performed as follows.
# The SI is calculated based on F. C.
# SI value of <1 in the formula indicates a synergism of the blended biocides exists.
# The minimal targeted inhibition was set at 75%, meaning a coupon with at least 75% algal growth inhibition was considered as a pass.
SMILES,"Total conc, ppm (minimum total biocide concentration in paint reaching pass level)","inhibition at 1000 ppm (504 h, at total conc 1000 ppm in paint)",% inhibition (at total conc 500 ppm in paint)
"Cc1ccc(NC(=O)N(C)C)cc1Cl [Chlorotoluron, N′-(3-chloro-4-methylphenyl)-N,N-dimethylurea]",1000 ppm,100%,
"[O-][n+]1ccccc1[S][Zn][S]c1cccc[n+]1[O-] [ZnPT, bis(2-pyridylthio)zinc 1,1′-dioxide]",500 ppm,,95%
